Earlier results in US20240165275A1, “STABLE FORMULATIONS OF INDOCYANINE GREEN” (PROVEPHARM LIFE SOLUTIONS, priority 2021, published 2024).

Key:
[1] = after 10 hours of storage in water and direct light
[2] = stored at 4° C. in the dark

With CC1(C)C(/C=C/C=C/C=C/C=C2\N(CCCCS(=O)(=O)[O-])c3ccc4ccccc4c3C2(C)C)=[N+](CCCCS(=O)(=O)[O-])c2ccc3ccccc3c21.[Na+] [ICG, Indocyanine green] as the molecule, how does the “reduction of absorbance at spectral peak” value [1] read?
Its value is 10%.

What about the stability on storage [2] of the same molecule?
Its stability on storage is “stable for three days”.

What about the fluorescence intensity lost ([2]; three days) of the same molecule?
The fluorescence intensity lost was 20%.
